Active and inactive are the calls of the source. The calls are words filed in the database; no cut-off is given here.
Columns and labels:
[1] = target: Transcription initiation factor TFIID subunit 1-like (Homo sapiens) (UniProt Q8IZX4); assay: Inhibition of human TAF1L (1428 to end residues) using RRRFRPASPLRGPPK as substrate measured after 120 mins in presence of [gamma33P]ATP by scintillation counting method; parameters: scale not given: the % may be the effect or the level left
HCT-116 [2] = assay: Induction of apoptosis in human HCT116 cells assessed as increase in cleaved caspase9 expression measured after 48 hrs by Western blot analysis; assay type: functional, cell-based
[3] = target: Tyrosine-protein kinase Fgr (Homo sapiens) (UniProt P09769); assay: Inhibition of recombinant human FGR (2 to end residues) assessed as residual activity at 10 uM using poly(Glu, Tyr) 4:1 as substrate measured after 40 mins in presence of [gamma33P]ATP by scintillation counting method
Mus musculus = species: Mus musculus; assay: Inhibition of recombinant full-length mouse PI3K p110alpha/p85alpha assessed as residual activity at 10 uM using phosphatidylinositol-4, 5-bisphosphate as substrate measured after 40 mins by HTRF assay
HCT-116 [4] = assay: Induction of apoptosis in human HCT116 cells assessed as viable cells at 50 nM measured after 48 hrs by Annexin V-FITC/propidium iodide staining-based flow cytometry (reference value: 94.5%); assay type: functional; conditions: HCT-116, 48 h, read-out: Activity
[5] = system: Mast/stem cell growth factor receptor Kit (Homo sapiens), P10721 [D816H]; assay: Inhibition of recombinant human c-Kit D816H mutant (544 to end residues) assessed as residual activity at 10 uM using GGMEDIYFEFMGGKKK as substrate measured after 40 mins in presence of [gamma33P]ATP by scintillation counting method
[6] = target: 5'-AMP-activated protein kinase catalytic subunit alpha-1 (Homo sapiens) (UniProt Q13131); assay: Inhibition of recombinant full-length human AMPKalpha1 assessed as residual activity at 10 uM using AMARAASAAALARRR as substrate measured after 40 mins in presence of [gamma33P]ATP by scintillation counting method
HCT-116 [7] = assay: Induction of cell cycle arrest in human HCT116 cells assessed as accumulation at G2/M phase after 24 hrs by propidium iodide-staining based flow cytometry; assay type: functional
[8] = target: Serine/threonine-protein kinase PAK 6 (Homo sapiens) (UniProt Q9NQU5); assay: Inhibition of recombinant human PAK6 (382 to end residues) assessed as residual activity at 10 uM using RRRLSFAEPG as substrate measured after 40 mins in presence of [gamma33P]ATP by scintillation counting method
[9] = target: Tyrosine-protein kinase Lck (Homo sapiens) (UniProt P06239); assay: Inhibition of recombinant full-length human Lck assessed as residual activity at 10 uM using KVEKIGEGTYGVV as substrate measured after 40 mins in presence of [gamma33P]ATP by scintillation counting method
[10] = target: NUAK family SNF1-like kinase 1 (Homo sapiens) (UniProt O60285); assay: Inhibition of recombinant human ARK5 (2 to end residues) assessed as residual activity at 10 uM using KKKVSRSGLYRSPSMPENLNRPR as substrate measured after 40 mins in presence of [gamma33P]ATP by scintillation counting method
HCT-116 [11] = assay: Cell cycle arrest in human HCT116 cells assessed as up regulation of CDK1 expression up to 150 nM after 24 hrs by Western blot analysis; assay type: functional, cell-based
[12] = Toxicity in nude BALB/c mouse assessed as change in RBC level at 40 to 80 mg/kg, po once daily for 4 weeks measured post-last dose; assay type: organism-based; conditions: in vivo, 672 h
HCT-116 [13] = assay: Induction of apoptosis in human HCT116 cells measured after 48 hrs by Annexin V-FITC/propidium iodide staining-based flow cytometric analysis; assay type: functional, cell-based
[14] = target: Dual specificity protein kinase CLK4 (Homo sapiens) (UniProt Q9HAZ1); assay: Inhibition of recombinant human CLK4 (128 to end residues) assessed as residual activity at 10 uM using YRRAAVPPSPSLSRHSSPHQS(p)EDEEE as substrate measured after 40 mins in presence of [gamma33P]ATP by scintillation counting method
[15] = target: Insulin-like growth factor 1 receptor (Homo sapiens) (UniProt P08069); assay: Inhibition of recombinant human IGF1R (959 to end residues) assessed as residual activity at 10 uM using KKKSPGEYVNIEFG as substrate measured after 40 mins in presence of [gamma33P]ATP by scintillation counting method
[16] = target: 3-phosphoinositide-dependent protein kinase 1 (Homo sapiens) (UniProt O15530); assay: Inhibition of recombinant human PDK1 (52 to end residues) assessed as residual activity at 10 uM using PDKtide as substrate measured after 40 mins in presence of [gamma33P]ATP by scintillation counting method
[17] = target: cGMP-dependent protein kinase 2 (Homo sapiens) (UniProt Q13237); assay: Inhibition of recombinant full-length human PRKG2 assessed as residual activity at 10 uM using KKLRRTLSFAEPG as substrate measured after 40 mins in presence of [gamma33P]ATP by scintillation counting method
[18] = target: Tyrosine-protein kinase ABL1 (Homo sapiens) (UniProt P00519); assay: Inhibition of recombinant human ABL (27 to end residues) assessed as residual activity at 10 uM using EAIYAAPFAKKK as substrate measured after 40 mins in presence of [gamma33P]ATP by scintillation counting method
[19] = target: 5'-AMP-activated protein kinase catalytic subunit alpha-2 (Homo sapiens) (UniProt P54646); assay: Inhibition of recombinant full-length human AMPKalpha2 assessed as residual activity at 10 uM using AMARAASAAALARRR as substrate measured after 40 mins in presence of [gamma33P]ATP by scintillation counting method
[20] = target: ALK tyrosine kinase receptor (Homo sapiens) (UniProt Q9UM73); assay: Inhibition of recombinant human ALK (1058 to end residues) assessed as residual activity at 10 uM using KKKSPGEYVNIEF as substrate measured after 40 mins in presence of [gamma33P]ATP by scintillation counting method
[21] = target: Ephrin type-B receptor 1 (Homo sapiens) (UniProt P54762); assay: Inhibition of recombinant human EphB1 (564 to end residues) assessed as residual activity at 10 uM using KVEKIGEGTYGVVYK as substrate measured after 40 mins in presence of [gamma33P]ATP by scintillation counting method
[22] = system: Serine/threonine-protein kinase Chk2 (Homo sapiens), O96017 [I157T]; assay: Inhibition of recombinant human CHK2 I157T mutant (5 to end residues) assessed as residual activity at 10 uM using KKKVSRSGLYRSPSMPENLNRPR as substrate measured after 40 mins in presence of [gamma33P]ATP by scintillation counting method
[23] = target: Bone morphogenetic protein receptor type-2 (Homo sapiens) (UniProt Q13873); assay: Inhibition of recombinant human BMPR2 (172 to 734 residues) assessed as residual activity at 10 uM using myelin basic protein as substrate measured after 120 mins in presence of [gamma33P]ATP by scintillation counting method

Tyrosine-protein kinase Lck (Homo sapiens), sequence (P06239 2-509 limits assumed): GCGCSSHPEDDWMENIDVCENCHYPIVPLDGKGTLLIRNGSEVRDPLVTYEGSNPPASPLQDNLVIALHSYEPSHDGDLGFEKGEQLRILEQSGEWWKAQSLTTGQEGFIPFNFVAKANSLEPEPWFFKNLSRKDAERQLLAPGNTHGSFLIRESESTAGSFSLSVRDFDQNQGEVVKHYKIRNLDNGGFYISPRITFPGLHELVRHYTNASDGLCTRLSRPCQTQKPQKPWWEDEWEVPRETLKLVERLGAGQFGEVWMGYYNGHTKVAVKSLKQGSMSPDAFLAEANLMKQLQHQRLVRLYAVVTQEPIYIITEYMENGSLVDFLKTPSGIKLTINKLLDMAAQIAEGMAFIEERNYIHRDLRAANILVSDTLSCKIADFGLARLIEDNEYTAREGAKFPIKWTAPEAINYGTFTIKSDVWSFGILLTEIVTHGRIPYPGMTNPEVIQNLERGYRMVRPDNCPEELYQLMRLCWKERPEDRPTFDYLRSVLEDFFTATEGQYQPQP
Mast/stem cell growth factor receptor Kit (Homo sapiens), P10721 [D816H], sequence (P10721 whole entry D816H): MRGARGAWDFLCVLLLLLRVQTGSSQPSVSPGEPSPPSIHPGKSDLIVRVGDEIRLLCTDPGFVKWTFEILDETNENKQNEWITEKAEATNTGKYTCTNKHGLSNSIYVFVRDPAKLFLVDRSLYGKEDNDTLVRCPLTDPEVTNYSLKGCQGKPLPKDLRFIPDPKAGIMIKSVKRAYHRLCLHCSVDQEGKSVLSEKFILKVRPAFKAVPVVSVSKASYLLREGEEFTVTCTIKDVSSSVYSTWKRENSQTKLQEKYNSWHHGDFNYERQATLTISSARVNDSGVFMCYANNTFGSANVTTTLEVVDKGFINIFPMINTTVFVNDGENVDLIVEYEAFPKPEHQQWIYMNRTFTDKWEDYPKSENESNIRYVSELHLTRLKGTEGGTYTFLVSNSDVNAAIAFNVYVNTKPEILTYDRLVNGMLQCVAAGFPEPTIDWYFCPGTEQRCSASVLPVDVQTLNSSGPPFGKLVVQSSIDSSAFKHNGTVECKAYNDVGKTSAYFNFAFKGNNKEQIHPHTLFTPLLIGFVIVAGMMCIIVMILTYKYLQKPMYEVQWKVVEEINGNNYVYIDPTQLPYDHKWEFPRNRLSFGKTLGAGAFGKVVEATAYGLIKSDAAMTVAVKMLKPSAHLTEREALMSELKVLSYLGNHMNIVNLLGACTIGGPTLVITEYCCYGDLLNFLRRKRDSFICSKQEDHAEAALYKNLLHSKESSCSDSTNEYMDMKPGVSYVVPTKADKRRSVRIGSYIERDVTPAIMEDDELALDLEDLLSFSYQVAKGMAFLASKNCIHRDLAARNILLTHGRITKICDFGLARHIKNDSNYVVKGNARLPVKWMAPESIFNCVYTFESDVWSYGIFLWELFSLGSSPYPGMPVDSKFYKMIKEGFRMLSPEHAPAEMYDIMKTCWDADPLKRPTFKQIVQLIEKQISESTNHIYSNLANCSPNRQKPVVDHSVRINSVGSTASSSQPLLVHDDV
5'-AMP-activated protein kinase catalytic subunit alpha-2 (Homo sapiens), sequence (P54646 whole entry, looked up): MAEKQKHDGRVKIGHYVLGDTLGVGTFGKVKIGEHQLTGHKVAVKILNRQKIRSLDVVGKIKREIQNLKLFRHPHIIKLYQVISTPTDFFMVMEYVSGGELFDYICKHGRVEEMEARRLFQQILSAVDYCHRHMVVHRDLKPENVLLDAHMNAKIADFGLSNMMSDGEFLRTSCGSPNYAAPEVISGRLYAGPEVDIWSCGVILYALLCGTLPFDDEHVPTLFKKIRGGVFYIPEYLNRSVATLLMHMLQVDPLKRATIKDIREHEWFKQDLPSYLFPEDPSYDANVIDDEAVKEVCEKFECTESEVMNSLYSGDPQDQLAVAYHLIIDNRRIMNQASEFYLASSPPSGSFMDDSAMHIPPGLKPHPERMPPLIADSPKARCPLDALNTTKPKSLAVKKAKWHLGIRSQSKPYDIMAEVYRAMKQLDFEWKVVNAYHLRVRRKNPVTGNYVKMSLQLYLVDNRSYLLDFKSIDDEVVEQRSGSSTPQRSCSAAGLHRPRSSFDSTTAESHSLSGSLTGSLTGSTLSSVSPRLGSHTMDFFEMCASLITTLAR
Tyrosine-protein kinase ABL1 (Homo sapiens), sequence (P00519 whole entry): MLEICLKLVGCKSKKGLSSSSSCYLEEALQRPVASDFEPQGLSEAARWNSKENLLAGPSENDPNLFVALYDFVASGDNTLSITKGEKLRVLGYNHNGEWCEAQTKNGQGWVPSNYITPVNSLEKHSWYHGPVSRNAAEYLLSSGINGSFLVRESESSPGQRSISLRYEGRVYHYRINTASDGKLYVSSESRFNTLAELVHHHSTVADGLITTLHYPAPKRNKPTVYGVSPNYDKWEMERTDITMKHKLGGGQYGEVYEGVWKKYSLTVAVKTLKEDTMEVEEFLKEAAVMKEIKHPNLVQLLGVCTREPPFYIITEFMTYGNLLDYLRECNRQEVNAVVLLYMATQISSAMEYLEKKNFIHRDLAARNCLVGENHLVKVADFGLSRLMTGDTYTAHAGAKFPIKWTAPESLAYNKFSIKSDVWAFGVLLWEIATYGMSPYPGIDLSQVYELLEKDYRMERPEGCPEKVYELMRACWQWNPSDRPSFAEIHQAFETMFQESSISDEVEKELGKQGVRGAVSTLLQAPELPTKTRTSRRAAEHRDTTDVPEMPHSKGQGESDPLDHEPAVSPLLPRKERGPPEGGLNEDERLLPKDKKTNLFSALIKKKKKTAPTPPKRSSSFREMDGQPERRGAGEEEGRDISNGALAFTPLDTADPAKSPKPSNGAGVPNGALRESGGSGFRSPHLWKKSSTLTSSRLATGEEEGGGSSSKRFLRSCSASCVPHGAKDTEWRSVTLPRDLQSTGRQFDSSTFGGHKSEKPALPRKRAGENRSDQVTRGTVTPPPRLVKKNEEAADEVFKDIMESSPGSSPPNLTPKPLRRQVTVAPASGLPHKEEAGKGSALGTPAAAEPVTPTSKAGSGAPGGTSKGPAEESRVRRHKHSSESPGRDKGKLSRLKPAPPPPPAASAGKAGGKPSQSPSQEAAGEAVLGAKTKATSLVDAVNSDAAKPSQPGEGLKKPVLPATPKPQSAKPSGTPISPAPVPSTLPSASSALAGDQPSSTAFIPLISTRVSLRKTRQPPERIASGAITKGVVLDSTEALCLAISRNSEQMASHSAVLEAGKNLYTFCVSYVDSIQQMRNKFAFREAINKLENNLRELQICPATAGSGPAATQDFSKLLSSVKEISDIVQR
3-phosphoinositide-dependent protein kinase 1 (Homo sapiens), sequence (O15530 whole entry): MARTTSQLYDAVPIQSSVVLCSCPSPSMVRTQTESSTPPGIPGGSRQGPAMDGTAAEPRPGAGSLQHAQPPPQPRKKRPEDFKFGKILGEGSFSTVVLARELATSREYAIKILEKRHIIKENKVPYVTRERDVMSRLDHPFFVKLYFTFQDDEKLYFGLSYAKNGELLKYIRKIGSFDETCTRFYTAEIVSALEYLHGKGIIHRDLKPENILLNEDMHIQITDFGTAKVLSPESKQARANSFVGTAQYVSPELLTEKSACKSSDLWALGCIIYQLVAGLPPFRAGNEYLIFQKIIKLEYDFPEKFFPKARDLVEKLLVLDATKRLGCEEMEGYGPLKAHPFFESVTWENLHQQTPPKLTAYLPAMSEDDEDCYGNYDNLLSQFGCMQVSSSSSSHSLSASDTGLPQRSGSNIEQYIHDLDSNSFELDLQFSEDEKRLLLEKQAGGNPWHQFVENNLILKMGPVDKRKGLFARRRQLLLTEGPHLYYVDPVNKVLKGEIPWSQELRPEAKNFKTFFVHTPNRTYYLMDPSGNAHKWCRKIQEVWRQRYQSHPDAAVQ
NUAK family SNF1-like kinase 1 (Homo sapiens), sequence (O60285 whole entry): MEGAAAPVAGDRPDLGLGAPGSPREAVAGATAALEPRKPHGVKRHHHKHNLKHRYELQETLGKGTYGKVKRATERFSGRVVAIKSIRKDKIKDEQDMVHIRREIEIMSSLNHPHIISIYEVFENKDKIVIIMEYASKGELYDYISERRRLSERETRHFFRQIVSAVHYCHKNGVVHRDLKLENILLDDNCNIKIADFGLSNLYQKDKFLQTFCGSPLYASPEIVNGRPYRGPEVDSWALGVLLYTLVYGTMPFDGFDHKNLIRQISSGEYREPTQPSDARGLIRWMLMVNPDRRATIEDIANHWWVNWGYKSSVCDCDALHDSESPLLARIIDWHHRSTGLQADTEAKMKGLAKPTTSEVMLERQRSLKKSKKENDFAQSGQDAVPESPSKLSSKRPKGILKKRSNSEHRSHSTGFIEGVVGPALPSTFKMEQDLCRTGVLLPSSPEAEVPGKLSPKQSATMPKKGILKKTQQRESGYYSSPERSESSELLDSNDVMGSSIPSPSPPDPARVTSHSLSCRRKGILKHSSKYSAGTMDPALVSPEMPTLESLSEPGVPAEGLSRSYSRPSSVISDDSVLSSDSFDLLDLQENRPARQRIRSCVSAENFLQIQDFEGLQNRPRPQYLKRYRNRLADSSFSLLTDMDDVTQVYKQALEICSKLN
Serine/threonine-protein kinase Chk2 (Homo sapiens), O96017 [I157T], sequence (O96017 whole entry I157T, the tested form may be a part): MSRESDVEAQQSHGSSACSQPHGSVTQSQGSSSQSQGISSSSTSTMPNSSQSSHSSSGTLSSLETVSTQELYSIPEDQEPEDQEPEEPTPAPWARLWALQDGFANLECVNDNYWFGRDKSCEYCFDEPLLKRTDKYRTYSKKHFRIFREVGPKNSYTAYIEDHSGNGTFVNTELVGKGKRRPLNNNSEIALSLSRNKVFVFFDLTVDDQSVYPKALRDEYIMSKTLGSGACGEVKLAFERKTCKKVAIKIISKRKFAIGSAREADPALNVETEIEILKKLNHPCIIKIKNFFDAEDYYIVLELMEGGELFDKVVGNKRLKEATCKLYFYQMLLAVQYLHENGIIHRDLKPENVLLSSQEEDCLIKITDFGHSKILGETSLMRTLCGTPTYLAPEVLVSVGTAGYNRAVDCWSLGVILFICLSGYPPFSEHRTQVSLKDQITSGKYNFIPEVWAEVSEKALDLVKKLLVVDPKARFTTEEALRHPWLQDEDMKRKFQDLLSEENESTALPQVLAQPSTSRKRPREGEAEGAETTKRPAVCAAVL

Cc1cc(C)c(CNc2nc(Cl)nc3c2ncn3C2CCCC2)c(=O)[nH]1
Activity [1]: 108%
Activity (HCT-116 [2]): Dose-dependent effect
Activity [3]: 94.5%
Activity (Mus musculus): 99.5%
viability at 0.05 µM (HCT-116 [4]): 42.6%
Activity [5]: 101%
Activity [6]: 120%
Activity (HCT-116 [7]): Dose-dependent effect
Activity [8]: 101%
Activity [9]: 84.5%
Activity [10]: 108%
Activity (HCT-116 [11]): Active
Activity [12]: Non-Toxic
Activity (HCT-116 [13]): Dose-dependent effect
Activity [14]: 98.5%
Activity [15]: 81%
Activity [16]: 91%
Activity [17]: 98%
Activity [18]: 108%
Activity [19]: 117%
Activity [20]: 112%
Activity [21]: 104%
Activity [22]: 103%
Activity [23]: 109%
